Values quoted from earlier work as cited in patent US20260191865A1, “CANCER THERAPY WITH CAPIVASERTIB AND FULVESTRANT” (AstraZeneca AB, priority 2022, published 2026).
Where two headings read alike, the source gives them in different places.

Test system: ER-positive, HER2-negative advanced breast cancer

Compound: NC1(C(=O)N[C@@H](CCO)c2ccc(Cl)cc2)CCN(c2ncnc3[nH]ccc23)CC1 [capivasertib, (S)-4-amino-N-(1-(4-chlorophenyl)-3-hydroxypropyl)-1-(7H-pyrrolo[2,3-d]pyrimidin-4-yl)piperidine-4-carboxamide]
- PFS and overall survival benefit (NGS-identified pathway non-altered subgroup): no such benefit
- progression-free survival (PFS) (capivasertib added to fulvestrant, postmenopausal women, AI-resistant, no previous CDK4/6 inhibitor): significant improvement
- PFS and overall survival benefit (expanded (NGS) PI3K/AKT/PTEN pathway-altered subgroup, updated analysis): significant PFS and overall survival benefit
- benefit by original pathway status (secondary endpoint subgroup analysis) (original pathway-altered and original pathway non-altered subgroups, capivasertib added to fulvestrant): conferred benefit
